# Literature values in patent US20090291122A1, “Wound Care Treatment Product” (SANO MEDICAL bvba, priority 2006, published 2009).
# Tested on: E-coli
smiles,measurement,value
O=[O+][O-] [Ozone],speed of killing E-coli relative to chlorine,3125 times faster than chlorine
